Measured values taken from PMC4848594 (Viruses, 2016).

Key:
[1] = target: RCV RdRp; experiment: PicoGreen dsRNA de novo polymerase assay; assay type: biochemical, Rabbit calicivirus Australia 1 (Lagovirus europaeus GI.4); conditions: 45 μM rGTP, 10 ng/μL poly(C), 2.5 mM MnCl2, pH 7.5, 30 °C, 10 min preincubation; non-nucleoside inhibitor
[2] = target: T1, RHDV RdRp (Rabbit hemorrhagic disease virus-V351, UniProt P27411); experiment: PicoGreen dsRNA de novo polymerase assay; assay type: biochemical
T1 construct: gene ORF1
T1 sequence (P27411 1252-1767): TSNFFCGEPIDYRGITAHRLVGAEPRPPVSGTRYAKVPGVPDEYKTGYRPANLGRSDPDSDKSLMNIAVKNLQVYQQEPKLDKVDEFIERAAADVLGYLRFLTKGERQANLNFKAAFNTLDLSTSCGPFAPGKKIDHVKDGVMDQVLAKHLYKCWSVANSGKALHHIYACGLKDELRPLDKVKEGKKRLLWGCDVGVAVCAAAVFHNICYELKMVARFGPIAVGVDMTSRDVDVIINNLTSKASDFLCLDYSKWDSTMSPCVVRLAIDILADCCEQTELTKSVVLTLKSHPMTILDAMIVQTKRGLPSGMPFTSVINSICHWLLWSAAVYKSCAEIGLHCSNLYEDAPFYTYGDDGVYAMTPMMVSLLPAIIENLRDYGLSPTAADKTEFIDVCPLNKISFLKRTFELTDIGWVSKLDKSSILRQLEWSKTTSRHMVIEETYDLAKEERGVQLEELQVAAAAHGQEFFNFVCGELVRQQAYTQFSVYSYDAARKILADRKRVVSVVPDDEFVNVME

[3] = test system: NoV RdRp; experiment: PicoGreen dsRNA assay, substrate inhibition model; assay type: biochemical, Norovirus GII.4 (Norwalk virus, Norovirus norwalkense); conditions: substrate inhibition constant; rGTP 0–2.0 mM, 20 ng/μL poly(C), 2.5 mM MnCl2, pH 7.5, 30 °C
[4] = test system: RCV RdRp; experiment: PicoGreen dsRNA assay, substrate inhibition model; assay type: biochemical, Rabbit calicivirus Australia 1 (Lagovirus europaeus GI.4); conditions: substrate inhibition constant; rGTP 0–2.0 mM, 20 ng/μL poly(C), 2.5 mM MnCl2, pH 7.5, 30 °C
[5] = test system: NoV RdRp; experiment: PicoGreen dsRNA assay, Michaelis-Menten model; assay type: biochemical, Norovirus GII.4 (Norwalk virus, Norovirus norwalkense); conditions: 20 ng/μL poly(C), 2.5 mM MnCl2, 5 mM DTT, pH 7.5, 30 °C; Michaelis-Menten fit
[6] = target: T1, RHDV RdRp; experiment: PicoGreen dsRNA assay, substrate inhibition model; assay type: biochemical; conditions: substrate inhibition constant; rGTP 0–2.0 mM, 20 ng/μL poly(C), 2.5 mM MnCl2, pH 7.5, 30 °C
[7] = test system: RCV RdRp; experiment: PicoGreen dsRNA assay, Michaelis-Menten model; assay type: biochemical, Rabbit calicivirus Australia 1 (Lagovirus europaeus GI.4); conditions: 20 ng/μL poly(C), 2.5 mM MnCl2, 5 mM DTT, pH 7.5, 30 °C; Michaelis-Menten fit
[8] = test system: Nc1nc2c(ncn2[C@@H]2O[C@H](COP(=O)(O)OP(=O)(O)OP(=O)(O)O)[C@@H](O)[C@H]2O)c(=O)[nH]1; experiment: purified protein; conditions: 20 ng/μL poly(C), 2.5 mM MnCl2, 5 mM DTT, pH 7.5, 30 °C, Michaelis-Menten fit

Compound: Cc1nc(-c2ccccc2)sc1C(=O)Nc1sc2c(c1C#N)CCC2 [NIC02]
- IC50 [1]: 13.5 µM
- IC50 [2]: 19.9 µM

Compound: Nc1nc2c(ncn2[C@@H]2O[C@H](COP(=O)(O)OP(=O)(O)OP(=O)(O)O)[C@@H](O)[C@H]2O)c(=O)[nH]1 [rGTP]
- NoV RdRp [3]: 0.6 ± 0.2 mM
- RCV RdRp [4]: 1.7 ± 0.2 mM
- Km [5]: 77.7 ± 14.5 µM
- RHDV RdRp [6]: 2.1 ± 0.4 mM
- Km [7]: 5.7 ± 0.7 µM

Compound: RHDV RdRp (Rabbit hemorrhagic disease virus-V351)
- Km [8]: 14.6 ± 2.4 µM
